Laboratory results as given in paper PMC10931833, “Simultaneous Purification of Human Interferon Alpha-2b and Serum Albumin Using Bioprivileged Fluorinated Ionic Liquid-Based Aqueous Biphasic Systems” (International Journal of Molecular Sciences, 2024).

Assays:
[1] = biological target: T1, FITC-BSA (Bos taurus, UniProt P02769); assay: MST binding to FITC-BSA; parameters: species or system bovine; conditions: 0.41 μM BSA
T1 construct: purchased Millipore Sigma-Aldrich
In short: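 FITC-labelled BSA, fixed at 0.4 μM in PBS, measured by microscale thermophoresis (medium MST power, 20% LED) against 16 1:1 ligand dilutions from starting concentrations of 10–400 mM. Traces recorded 5 s off, 30 s on, 5 s off. Data from three independently pipetted experiments analysed.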

[2] = biological target: T2, BSA (Bos taurus, UniProt P02769); assay: Far-UV CD secondary structure of BSA (CONTIN-LL deconvolution); type: physicochemical, bovine; parameters: Regular Alpha Helix / Distorted Alpha Helix / Regular Beta Sheet / Distorted Beta Sheet / Turns / Unordered: unit not given here; conditions: 1.0 mg/mL BSA, 25 °C
T2 construct: purchased Millipore Sigma-Aldrich
In short: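 Far-UV CD spectra (190–260 nm) of BSA at 1 mg/mL with solvent at 0.1 to 200 mM, 10 mm cuvette, room temperature, 50 nm/min, 4 accumulations, duplicates combined. Converted to MRE; secondary structure deconvoluted by CONTIN-LL with SMP180 reference set.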

T2 sequence (P02769 25-607): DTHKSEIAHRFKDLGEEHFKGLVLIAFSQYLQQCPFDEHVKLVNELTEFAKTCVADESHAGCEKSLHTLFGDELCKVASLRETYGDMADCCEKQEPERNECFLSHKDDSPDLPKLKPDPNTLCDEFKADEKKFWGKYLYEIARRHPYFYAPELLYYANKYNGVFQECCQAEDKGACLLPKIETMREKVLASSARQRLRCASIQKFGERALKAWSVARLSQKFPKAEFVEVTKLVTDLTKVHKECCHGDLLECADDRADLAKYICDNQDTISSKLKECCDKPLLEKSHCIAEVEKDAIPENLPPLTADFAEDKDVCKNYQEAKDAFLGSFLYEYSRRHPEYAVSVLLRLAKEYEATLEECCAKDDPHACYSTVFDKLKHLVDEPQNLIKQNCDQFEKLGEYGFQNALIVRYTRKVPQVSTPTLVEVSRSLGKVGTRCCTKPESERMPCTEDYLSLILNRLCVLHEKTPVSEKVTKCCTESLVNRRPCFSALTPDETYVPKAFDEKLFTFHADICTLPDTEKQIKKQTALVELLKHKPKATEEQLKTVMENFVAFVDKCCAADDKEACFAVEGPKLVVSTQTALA
T1 sequence (P02769 25-607): as above

C[N+](C)(C)CCO.O=S(=O)([O-])C(F)(F)C(F)(F)C(F)(F)C(F)(F)F [[N1112(OH)][C4F9SO3], (2-hydroxyethyl)trimethylammonium perfluorobutane sulfonate]
Kd ([1]; max. conc. first capillary below 1st CAC (monomer)): no binding detected
Kd ([1]; max. conc. first capillary in 3rd CAC range): no binding detected
Distorted Alpha Helix ([2]; 0.1 mM component): 0.214
Distorted Beta Sheet ([2]; 0.1 mM component): 0.025
Regular Alpha Helix ([2]; 0.1 mM component): 0.418
Regular Beta Sheet ([2]; 0.1 mM component): 0.000
Turns ([2]; 0.1 mM component): 0.138
Unordered ([2]; 0.1 mM component): 0.205
Distorted Alpha Helix ([2]; 1 mM component): 0.225
Distorted Beta Sheet ([2]; 1 mM component): 0.024
Regular Alpha Helix ([2]; 1 mM component): 0.428
Regular Beta Sheet ([2]; 1 mM component): 0.000
Turns ([2]; 1 mM component): 0.138
Unordered ([2]; 1 mM component): 0.185
Distorted Alpha Helix ([2]; 5 mM component): 0.222
Distorted Beta Sheet ([2]; 5 mM component): 0.025
Regular Alpha Helix ([2]; 5 mM component): 0.423
Regular Beta Sheet ([2]; 5 mM component): 0.000
Turns ([2]; 5 mM component): 0.139
Unordered ([2]; 5 mM component): 0.192
Distorted Alpha Helix ([2]; 25 mM component): 0.215
Distorted Beta Sheet ([2]; 25 mM component): 0.025
Regular Alpha Helix ([2]; 25 mM component): 0.406
Regular Beta Sheet ([2]; 25 mM component): 0.000
Turns ([2]; 25 mM component): 0.140
Unordered ([2]; 25 mM component): 0.214
Distorted Alpha Helix ([2]; 55 mM component): 0.208
Distorted Beta Sheet ([2]; 55 mM component): 0.027
Regular Alpha Helix ([2]; 55 mM component): 0.392
Regular Beta Sheet ([2]; 55 mM component): 0.000
Turns ([2]; 55 mM component): 0.144
Unordered ([2]; 55 mM component): 0.228
Distorted Alpha Helix ([2]; 90 mM component): 0.199
Distorted Beta Sheet ([2]; 90 mM component): 0.036
Regular Alpha Helix ([2]; 90 mM component): 0.376
Regular Beta Sheet ([2]; 90 mM component): 0.022
Turns ([2]; 90 mM component): 0.152
Unordered ([2]; 90 mM component): 0.215
Distorted Alpha Helix ([2]; 120 mM component): 0.205
Distorted Beta Sheet ([2]; 120 mM component): 0.032
Regular Alpha Helix ([2]; 120 mM component): 0.400
Regular Beta Sheet ([2]; 120 mM component): 0.012
Turns ([2]; 120 mM component): 0.147
Unordered ([2]; 120 mM component): 0.203
Distorted Alpha Helix ([2]; 200 mM component): 0.207
Distorted Beta Sheet ([2]; 200 mM component): 0.032
Regular Alpha Helix ([2]; 200 mM component): 0.406
Regular Beta Sheet ([2]; 200 mM component): 0.017
Turns ([2]; 200 mM component): 0.147
Unordered ([2]; 200 mM component): 0.191
